Experimental data: the SangsterLogP compilation

Legend:
[1] = method code SF, from DOI: 10.1016/0223-5234(96)88244-4; conditions: pH 7.4

logP | logD [1] | Structure (SMILES)
1.51 |  | CC(C)NC(=NC#N)NS(=O)(=O)c1cnccc1Nc1cccc(I)c1
0.67 |  | Cc1ccccc1Nc1ccncc1S(=O)(=O)NC(=NC#N)NC(C)C
1.27 |  | CC(C)NC(=NC#N)NS(=O)(=O)c1cnccc1Nc1cccc(Br)c1
0.2 |  | CC(C)NC(=NC#N)NS(=O)(=O)c1cnccc1NC1CCCC1
-0.77 |  | CC(C)NC(=NC#N)NS(=O)(=O)c1cnccc1NC1CC1
-0.43 |  | CCCNc1ccncc1S(=O)(=O)NC(=NC#N)NC(C)C
0.86 |  | Cc1cccc(Nc2ccncc2S(=O)(=O)NC(=NC#N)NC(C)C)c1
-1.43 |  | CNc1ccncc1S(=O)(=O)NC(=NC#N)NC(C)C
2.15 |  | N#CN=C(NS(=O)(=O)c1cnccc1NC1CCCCCCC1)N1CCCC1
1.14 |  | CC(C)NC(=NC#N)NS(=O)(=O)c1cnccc1Nc1cccc(Cl)c1
0.59 |  | CC(C)N=C(NC#N)NS(=O)(=O)c1cnccc1Nc1cccc(F)c1
0.75 |  | CCNC(=NC#N)NS(=O)(=O)c1cnccc1NC1CCCCCC1
0.16 |  | CCNC(=NC#N)NS(=O)(=O)c1cnccc1NC1CCCCC1
1.37 |  | CC(C)NC(=NC#N)NS(=O)(=O)c1cnccc1Nc1ccc(Cl)cc1
1.65 |  | N#CN=C(NS(=O)(=O)c1cnccc1NC1CCCCCC1)N1CCCC1
0.1 |  | CC(C)CNc1ccncc1S(=O)(=O)NC(=NC#N)NC(C)C
1.8 |  | CC(C)NC(=NC#N)NS(=O)(=O)c1cnccc1NC1CCCCCCC1
3.73 |  | CC(C)NC(=NC#N)NS(=O)(=O)c1cnccc1NC1CCCCCCCCCCC1
0.75 |  | CC(C)NC(=NC#N)NS(=O)(=O)c1cnccc1NC1CCCCC1
 | 1.07 | N#CN=C(NS(=O)(=O)c1cnccc1NC1CCCCC1)N1CCCC1
0.91 |  | Cc1ccc(Nc2ccncc2S(=O)(=O)NC(=NC#N)NC(C)C)cc1
-1.02 |  | CCNc1ccncc1S(=O)(=O)NC(=NC#N)NC(C)C
